Measured values published in patent US8598079B2, “Active compound combinations” (priority 2010, dated 2013).

Experiments:
[1] = test system: Rhizoctonia solani; assay: Rhizoctonia solani test (in vitro)/microtitre plates; assay type: cell-based; conditions: 168 h, 7 days incubation, single active compound, read-out: % efficacy
Description: (§1) The microtest is carried out in microtitre plates using Potato Dextrose Broth (PDB) as liquid test medium. The active compounds are used as technical-grade a.i., dissolved in acetone. For inoculation, a mycelium suspension of Rhizoctonia solani is used. After 7 days of incubation in the dark and with shaking (10 Hz), the transparency in each filled cavity of the microtitre plates is determined with the aid of a spectrophotometer.

[2] = test system: Phaedon cochleariae; assay: Phaedon cochleariae larvae test; conditions: sprayed cabbage leaves
[3] = test system: Pyrenophora teres; assay: Pyrenophora teres test (in vitro)/microtitre plates; assay type: cell-based; conditions: 120 h, 5 days incubation, single active compound, read-out: % efficacy
Description: as §1, with “methanol.” for “acetone.”, “spore” for “mycelium”, “Pyrenophora teres” for “Rhizoctonia solani”, “5” for “7”

Row | Compound | Emax at 0.3 ppm [1] | Kill in % after 1 d ([2]; 100 ppm) | Emax at 1 ppm [3] | Kill in % after 3 d ([2]; 200 ppm) | Kill in % after 1 d ([2]; 500 ppm) | Kill in % after 3 d ([2]; 4 ppm)
1 | CC(c1ccc(C(F)(F)F)nc1)S(C)(=O)=NC#N (centres unmarked) [sulfoxaflor] | 0% | 25% | – | – | – | –
2 | Cc1nn(C)c(F)c1C(=O)Nc1ccccc1C(C)CC(C)C (centres unmarked) [penflufen, N-[2-(1,3-dimethylbutyl)phenyl]-5-fluoro-1,3-dimethyl-1H-pyrazole-4-carboxamide] | 20% | – | 26% | 0% | 0% | –
3 | CNC(=O)c1cc(Cl)cc(C)c1NC(=O)c1cc(Br)nn1-c1ncccc1Cl [Rynaxypyr, 3-bromo-N-[4-chloro-2-methyl-6-(methylcarbamoyl)phenyl]-1-(3-chloropyridin-2-yl)-1H-pyrazole-5-carboxamide] | – | – | 11% | – | – | 80%
